Measurements reported in the supplement of paper PMC10307832.

What was measured:
Experiment in all cases: relative viability (nuclei count vs DMSO), 5 days (fraction); higher = more cells survive
[1] = compound: Cc1ccc(NC(=O)c2ccc(CN3CCN(C)CC3)cc2)cc1Nc1nc(-c2cccnc2)cs1 [Masitinib] + COc1cccc2cc(-c3nc([C@H]4CC[C@H](C(=O)O)CC4)n4ncnc(N)c34)[nH]c12 [OSI-027] (partner 0.5 µM)
Outline: (§1)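 Lung cancer cell lines were seeded in 1536-well plates and dosed by pin tool the next day, with either a single drug or a fixed anchor-drug dose combined with five library-drug doses (not always all listed) spaced in √10 steps. Five days later, one step fixed the cells and stained their nuclei (final 0.05% Triton X-100, 1% formaldehyde, 1 ug/ml Hoechst), and nuclei were counted on 4× images. Relative viability is the nuclei count in treated wells divided by the count in vehicle wells, and each value is the median of duplicate plates.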

[2] = compound: Cc1ccc(NC(=O)c2ccc(CN3CCN(C)CC3)cc2)cc1Nc1nc(-c2cccnc2)cs1 [Masitinib] + O=C(CCCCCCC(=O)Nc1ccccc1)NO [Vorinostat] (partner 1 µM)
Outline: as §1

[3] = compound: Cc1ccc(NC(=O)c2ccc(CN3CCN(C)CC3)cc2)cc1Nc1nc(-c2cccnc2)cs1 [Masitinib] + Cc1nc(NC(=O)N2CCC[C@H]2C(N)=O)sc1-c1ccnc(C(C)(C)C(F)(F)F)c1 [Alpelisib] (partner 2 µM)
Outline: as §1

[4] = compound: Cc1ccc(NC(=O)c2ccc(CN3CCN(C)CC3)cc2)cc1Nc1nc(-c2cccnc2)cs1 [Masitinib] + C[C@]1(O)C[C@@H](c2nc(-c3ccc4ccc(-c5ccccc5)nc4c3)c3c(N)nccn32)C1 [Linsitinib] (partner 1 µM)
Outline: as §1

| Cell Line | relative viability ([1]; first compound 0.01 µM) | relative viability ([1]; first compound 0.1 µM) | relative viability ([1]; first compound 0.3162 µM) | relative viability ([1]; first compound 1 µM) | relative viability ([2]; first compound 0.01 µM) | relative viability ([2]; first compound 0.03162 µM) | relative viability ([2]; first compound 0.1 µM) | relative viability ([2]; first compound 0.3162 µM) | relative viability ([2]; first compound 1 µM) | relative viability ([1]; first compound 0.03162 µM) | relative viability ([3]; first compound 0.01 µM) | relative viability ([3]; first compound 0.03162 µM) | relative viability ([3]; first compound 0.1 µM) | relative viability ([3]; first compound 0.3162 µM) | relative viability ([3]; first compound 1 µM) | relative viability ([4]; first compound 0.01 µM) | relative viability ([4]; first compound 0.03162 µM) | relative viability ([4]; first compound 0.1 µM) | relative viability ([4]; first compound 0.3162 µM) | relative viability ([4]; first compound 1 µM) |
| --- | --- | --- | --- | --- | --- | --- | --- | --- | --- | --- | --- | --- | --- | --- | --- | --- | --- | --- | --- | --- |
| NCI-H522 | 0.784 | 0.781 | 0.781 | 0.698 | 0.822 | 0.904 | 1.07 | 1.06 | 0.821 | – | – | – | – | – | – | – | – | – | – | – |
| HCC-15 | 0.635 | 0.641 | 0.588 | 0.629 | 0.789 | 0.814 | 0.868 | 0.827 | 0.811 | 0.68 | 0.8 | 0.873 | 0.976 | 0.85 | 0.916 | 0.8 | 0.826 | 0.941 | 0.863 | 0.952 |
| A-427 | – | – | 0.531 | 0.456 | 0.608 | 0.827 | 0.791 | 0.826 | 0.827 | 0.509 | – | 1.09 | – | 1.05 | 1.08 | – | 1.06 | – | 1.18 | 1.07 |
| NCI-H23 | 0.49 | 0.617 | 0.575 | 0.559 | 0.564 | 0.462 | 0.547 | 0.454 | 0.501 | 0.572 | 0.639 | 0.49 | 0.659 | 0.579 | 0.669 | 0.656 | 0.58 | 0.613 | 0.525 | 0.493 |
| NCI-H1755 | – | 0.686 | 0.687 | 0.649 | 0.617 | 0.732 | 0.647 | 0.758 | 0.693 | 0.703 | – | 0.847 | 1.01 | 0.972 | 0.833 | – | 0.976 | 1 | 1.02 | 0.955 |
| LU99A | 0.257 | 0.311 | 0.316 | 0.29 | 0.455 | 0.433 | 0.492 | 0.534 | 0.467 | 0.331 | 0.554 | 0.544 | 0.549 | 0.547 | 0.449 | 0.511 | 0.53 | 0.512 | 0.719 | 0.505 |
| PC-3 [JPC-3] | 0.381 | 0.783 | 0.64 | 0.694 | 0.753 | 0.554 | 0.779 | 0.748 | 0.667 | 0.643 | 1.01 | 1.03 | 0.978 | 1.03 | 1.01 | 0.969 | 1 | 0.951 | 0.961 | 0.964 |
| NCI-H1975 | 0.937 | 0.864 | – | 0.509 | 0.693 | 0.736 | 0.724 | 0.716 | 0.711 | 0.793 | 0.62 | 0.622 | 0.684 | 0.602 | 0.604 | 0.995 | 0.92 | 1.03 | 0.832 | 0.908 |
| NCI-H1703 | – | – | – | – | – | – | – | – | – | – | 0.226 | 0.255 | 0.228 | 0.171 | 0.197 | 0.667 | 1.02 | 0.479 | 0.23 | 0.187 |
| HCC-366 | – | – | 0.792 | 0.78 | – | 0.335 | 0.344 | 0.249 | 0.334 | 1 | 0.33 | 0.294 | 0.376 | 0.315 | 0.382 | 0.728 | 0.521 | 0.841 | 0.753 | 0.55 |
| NCI-H1793 | 0.318 | 0.285 | 0.28 | 0.254 | 0.828 | 0.66 | 0.712 | 0.379 | 0.687 | 0.205 | 0.846 | 0.683 | 0.878 | 0.82 | 0.636 | 0.875 | 0.839 | 0.812 | 0.998 | 0.647 |
| NCI-H727 | 0.523 | 0.637 | 0.576 | 0.442 | 1.13 | 1.36 | 1.38 | 0.988 | 1.09 | 0.601 | 0.652 | 0.657 | 0.517 | 0.603 | 0.74 | 0.228 | 0.268 | 0.297 | 0.281 | 0.196 |
| RERF-LC-KJ | 0.629 | 0.583 | 0.418 | 0.412 | 0.587 | 0.783 | 0.752 | 0.541 | 0.646 | 0.517 | 0.865 | 0.762 | 0.917 | 0.842 | 0.738 | 0.878 | 0.849 | 0.926 | 0.871 | 0.736 |
| NCI-H1623 | 0.373 | 0.447 | 0.318 | 0.367 | – | – | – | – | – | 0.507 | – | – | – | – | – | – | – | – | – | – |
| Calu-6 | – | – | – | – | – | – | – | – | – | – | 1.02 | 1.01 | 1.02 | 0.872 | 0.923 | 0.815 | 0.916 | 1.06 | 0.997 | 0.902 |
| LC-2-ad | 0.862 | 0.929 | 0.738 | 0.768 | 0.546 | 0.666 | 0.584 | 0.694 | 0.718 | 0.904 | 0.866 | 0.822 | 0.843 | 0.815 | 0.844 | 0.876 | 0.83 | 0.791 | 0.855 | 0.833 |
| CAL-12T | 0.682 | 0.705 | 0.404 | 0.536 | 0.942 | 0.756 | 0.904 | 0.986 | 0.684 | 0.554 | 1.21 | 1.2 | 1.18 | 1.36 | 1.18 | 0.769 | 0.751 | 0.94 | 0.904 | 0.805 |
| SK-LU-1 | 0.361 | 0.346 | 0.329 | 0.368 | 0.779 | 0.844 | 0.744 | 0.926 | 0.774 | 0.334 | 1.12 | 1.14 | 0.984 | 1.31 | 1.03 | 1.06 | 1.22 | 1.26 | 1.43 | 1.25 |
| NCI-H1651 | 0.735 | 0.695 | 0.824 | 0.706 | 0.577 | 0.543 | 0.56 | 0.529 | 0.55 | 0.656 | 0.841 | 1.01 | 0.99 | 0.947 | 1 | 0.971 | 0.97 | 1.14 | 1 | 0.944 |
